For experiment [1], the target named is T1, HSV-1 TK (Human herpesvirus 1, UniProt P0DTH5).
Experimental: (§1) The competion experiments were carried out in the following way: The standard reaction mixture contained 2.5 mM MgCl2, 10 mM dithio threitol, 1 mg/ml bovine serum albumin, 2.5 mM ATP, 10 mM NaF, 2 μM methyl-^3H-thymidine, an appropriate amount of a nucleoside analog and the multisubstrate deoxyribonucleoside kinase in an amount resulting in a linear conversion of the substrate, in a total reaction mixture of 50 μl of 50 mM Tris-HCl, pH 8.0. The reaction mixture was incubated at 37° C. for 30 min, and the reaction was terminated by spotting on to DE-81 discs (Whatman). The discs were instantly immersed and washed in ethanol (70%). The filters were dried and assayed for radioactivity in a tuluene-based scintillant.
In experiment [2] the target is T2, deoxyguanosine kinase (Homo sapiens, UniProt Q16854).
T2 sequence (Q16854 40-277): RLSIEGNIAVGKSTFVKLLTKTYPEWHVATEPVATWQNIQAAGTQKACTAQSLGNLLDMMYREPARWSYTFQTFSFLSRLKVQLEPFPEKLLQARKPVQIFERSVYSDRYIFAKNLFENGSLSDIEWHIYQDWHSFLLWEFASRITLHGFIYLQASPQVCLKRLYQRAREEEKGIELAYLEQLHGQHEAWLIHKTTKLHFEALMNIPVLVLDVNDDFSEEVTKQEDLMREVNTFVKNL
The conditions noted are these: cited from earlier work.

For experiment [3], the system named is HSV-TK. To be noted: cited from earlier work.
The target in experiment [4] is T1, HSV-1 TK. Kind of experiment: biochemical.
Experimental: as §1
For experiment [5], the target named is T3, recombinant Dm-dNK (Drosophila melanogaster, UniProt Q9XZT6).
T3 sequence (Q9XZT6 1-250): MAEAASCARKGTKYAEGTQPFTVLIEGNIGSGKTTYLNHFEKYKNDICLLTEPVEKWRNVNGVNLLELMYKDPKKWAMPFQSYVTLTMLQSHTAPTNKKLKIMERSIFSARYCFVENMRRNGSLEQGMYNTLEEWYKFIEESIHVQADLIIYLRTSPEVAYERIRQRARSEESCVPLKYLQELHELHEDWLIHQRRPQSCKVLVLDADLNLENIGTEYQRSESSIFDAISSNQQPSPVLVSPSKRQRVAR
Kind of experiment: Phosphoryl transfer assay, substrate specificity of recombinant Dm-dNK. The conditions noted are these: naturally occurring nucleosides.
Experimental: A phosphor transferase assay was used to determine the substrate specificity of the putative deoxyribonucleoside kinase. […] The samples were incubated 30 min at 37° C. 2 μl of the reaction mixtures were spotted on poly(ethyleneimine) cellulose F thin layer chromatography sheets (Merck Inc.) and the nucleotide separated in a buffer containing NH4OH:isobutyric acid:dH2O (1:66:33). The sheets were autoradiographed using phosphoimaging plates (BAS 1000, Fujix).

Where two headings read alike, the source gives them in different places.

T1 sequence (P0DTH5 whole entry): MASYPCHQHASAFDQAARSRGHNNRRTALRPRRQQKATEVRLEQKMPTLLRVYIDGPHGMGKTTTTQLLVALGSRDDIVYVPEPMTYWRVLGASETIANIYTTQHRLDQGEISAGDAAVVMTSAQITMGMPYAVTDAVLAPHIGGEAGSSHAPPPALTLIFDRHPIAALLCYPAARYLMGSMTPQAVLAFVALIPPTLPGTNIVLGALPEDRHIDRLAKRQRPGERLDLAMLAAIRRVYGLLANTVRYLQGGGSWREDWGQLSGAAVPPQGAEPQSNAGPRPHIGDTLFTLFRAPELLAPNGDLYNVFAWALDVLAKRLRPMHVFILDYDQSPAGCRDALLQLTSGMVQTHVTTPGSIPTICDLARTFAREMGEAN

Take `Nc1ccn(C2CSC(CO)O2)c(=O)n1` (stereo not shown) [3TC]: the IC50 in experiment [1] is above 1000 µM. Further, the “phosphorylation by deoxyguanosine kinase (in words)” value in experiment [2] is reported as “does not phosphorylate”. Also, in experiment [3], the “phosphorylation by HSV-TK (in words)” value is “cannot phosphorylate”.

In experiment [4], `Nc1ccn([C@@H]2O[C@H](CO)[C@@H](O)[C@@H]2O)c(=O)n1` [AraC, 1-β-D-arabinofuranosylcytosine] registered an IC50 above 1000 µM. Besides, in experiment [3], the “phosphorylation by HSV-TK (in words)” value is listed as “cannot phosphorylate”.

As to `O=c1[nH]c(=O)n([C@H]2C[C@H](O)[C@@H](CO)O2)cc1/C=C/Br` [BVDU, (E)-5-(2-bromovinyl)-2′-deoxyuridine], the “phosphorylation by deoxyguanosine kinase (in words)” value in experiment [2] is reported as “does not phosphorylate”. Also, in experiment [4], the IC50 turned out to be 3 µM.

With `O=c1[nH]c(=O)n([C@@H]2O[C@H](CO)[C@@H](O)[C@@H]2O)cc1/C=C/Br` [BVaraU, (E)-5-(2-bromovinyl)-1-β-D-arabinofuranosyl-uracil], the “phosphorylation by deoxyguanosine kinase (in words)” value in experiment [2] is listed as “does not phosphorylate”. For the same compound, it took 4 µM to reach half-maximal inhibition in experiment [4] (IC50).

Take `Nc1nc(Cl)nc2c1ncn2[C@H]1C[C@H](O)[C@@H](CO)O1` [CdA, 2-chloro-2′-deoxyadenosine]: the IC50 in experiment [4] was above 1000 µM. Also, the “phosphorylation by HSV-TK (in words)” value in experiment [3] is recorded as “cannot phosphorylate”.

Regarding `O=c1[nH]c(=O)n([C@@H]2O[C@H](CO)[C@@H](O)[C@@H]2F)cc1I` [FIAU, 1-(2-deoxy-2-fluoro-β-D-arabinofuranosyl)-5-iodouracil], in experiment [4], the IC50 was 2 µM.

On to `O=c1[nH]c(=O)n([C@H]2C[C@H](O)[C@@H](CO)O2)cc1F` [FdU, 5-fluorodeoxyuridine], for which the IC50 in experiment [4] was 58 µM.

For `Nc1ccn([C@@H]2O[C@H](CO)[C@@H](O)C2(F)F)c(=O)n1` [dFdC, 2′,2′-difluorodeoxycytidine], the “phosphorylation by deoxyguanosine kinase (in words)” value in experiment [2] is on record as “does not phosphorylate”. The same compound showed an IC50 in experiment [4] above 1000 µM. Moreover, the “phosphorylation by HSV-TK (in words)” value in experiment [3] is reported as “cannot phosphorylate”.

`Nc1ccn([C@H]2CC[C@@H](CO)O2)c(=O)n1` [ddC, 2′,3′-dideoxycytidine]: the “phosphorylation by deoxyguanosine kinase (in words)” value in experiment [2] is “does not phosphorylate”. Moreover, the IC50 in experiment [4] is above 1000 µM. Further, in experiment [3], the “phosphorylation by HSV-TK (in words)” value is listed as “cannot phosphorylate”.

In the case of `Nc1ncnc2c1ncn2[C@H]1C[C@H](O)[C@@H](CO)O1` [deoxyadenosine], the “phosphorylation by the enzyme (in words)” value in experiment [5] is on record as “efficiently phosphorylated”.

Consider `Nc1ccn([C@H]2C[C@H](O)[C@@H](CO)O2)c(=O)n1` [deoxycytidine], for which the “phosphorylation by the enzyme (in words)” value in experiment [5] is “efficiently phosphorylated”.

As for `Nc1nc2c(ncn2[C@H]2C[C@H](O)[C@@H](CO)O2)c(=O)[nH]1` [deoxyguanosine], the “phosphorylation by the enzyme (in words)” value in experiment [5] was “efficiently phosphorylated”.

What is called IC50 is the concentration that inhibits the measured activity by half.
